According to article PMC9227536, “Prediction of Pharmacokinetics of IDP-73152 in Humans Using Physiologically-Based Pharmacokinetics” (Pharmaceutics, 2022):
Like-named read-outs stand apart in the source and are kept apart here.

Experiments:
[1] = Caco-2 cell bidirectional permeability; assay type: in vitro ADME; settings: human; for recovery at 2 h, 10 µM: Caco-2, Caco-2
Procedure: In this study, bidirectional permeability assays were conducted as described in the literature, with minor modifications. Briefly, Caco-2 cells (KCLB, Seoul, Korea) were seeded on Transwell® inserts (Corning Inc., Glendale, AZ, USA) and grown in a humidified atmosphere of 5% CO2 at 37 °C to form a confluent monolayer over 3 weeks. On day 21, after seeding, the integrity of the cell monolayer was assessed by measuring the transepithelial electrical resistance using an epithelial voltohmmeter (EVOM and EVOMX, World Precision Instruments, Sarasota, FL, USA). The medium in donor and receiver compartments was then replaced with 5 mM of HEPES in HBSS, and preincubated for 10 min at 37 °C. The permeability study was initiated by adding IDP-73152 (in a 10 µM final concentration in the chambers) to an apical insert (for apical-to-basolateral (A-to-B) transport) or a basolateral chamber (for basolateral-to-apical (B-to-A) transport). Samples were collected from both compartments at 30 min intervals up to 2 h. Throughout the study, the temperature and atmosphere of the compartments were maintained at 37 °C and 5% CO2. The samples were stored at −80 °C until analysis and the concentration of the compound was determined by LC-MS/MS assay for IDP-73152 [10]. The apparent permeability coefficient (Papp, in cm/s) was calculated using the following equation:(1) Papp=(dQ/dt/C0×A) where dQ/dt is the rate of IDP-73152 transport across monolayers (nmol/s), C0 is the initial concentration of IDP-73152 (10 μM), and A is the surface area of the insert (1.12 cm^2). The efflux ratio of IDP-73152 in the Caco-2 cell system was calculated by the ratio of Papp from B-to-A transport (Papp,B-to-A) to Papp from A-to-B transport (Papp,A-to-B).

[2] = Unbound fraction in plasma (rapid equilibrium dialysis), rat; assay type: in vitro ADME; settings: rats plasma, 0.3, 1, 3 μM, RED 5 h, read-out: fu,p
Procedure: (§1) The unbound fractions of IDP-73152 in various matrices were measured according to the manufacturer’s instructions for the rapid equilibrium dialysis (RED) device (ThermoFisher Scientific, Waltham, MA, USA). Briefly, IDP-73152 was added to the plasma or the microsomal/hepatocyte incubation buffer from various species (i.e., mouse, rat, dog, and human for microsomal incubation; rat for hepatocyte incubation) to obtain final concentrations of the compound at 0.3, 1, and 3 μM. After the membrane insert was placed in the RED plate, the solution containing IDP-73152 was added (400 µL) to the sample chamber, and the dialysis buffer (600 μL) was added to the buffer chamber. The RED plate was sealed with parafilm and then incubated at 37 °C in the orbital shaker (Lab Companion, Daejeon, Korea) at 100 rpm for 5 h. After a 50 μL aliquot was aspirated from both the sample and buffer chambers, an equal volume of protein-free buffer or blank medium was replaced in the aspirated sample or buffer to render the matrices compositionally identical. The IDP-73152 concentration in the buffer/sample chambers (i.e., CBuffer Chamber and CSample Chamber) was determined by an assay. Thus, the fraction unbound was defined as:(2) % Fraction unbound=(CBuffer Chamber/CSample Chamber)×100%

[3] = Unbound fraction in plasma (rapid equilibrium dialysis), human; assay type: in vitro ADME; settings: humans plasma, 0.3, 1, 3 μM, RED 5 h, read-out: fu,p
Procedure: as §1

[4] = Blood partitioning (LC-MS/MS-based depletion method), human; assay type: in vitro ADME; settings: whole blood, humans blood, 0.3, 1, 3 μM, read-out: BP (blood-to-plasma concentration ratio)
Procedure: In this study, the partitioning of IDP-73152 in blood samples obtained from mice, rats, dogs, and humans was determined using the LC-MS/MS-based depletion method with slight modifications. DP-73152 was added to an aliquot (1 mL) of blank blood or plasma at a final concentration of 0.3, 1, or 3 μM. The mixture was incubated at 37 °C in a water bath for 60 min. After the incubation, the plasma was separated by centrifugation of the blood samples for 5 min at 10,000× g/4 °C and stored at -80 °C until analysis. The blood-to-plasma concentration ratio (BP) was calculated using the equation:(3) BP=[…], where […] is the concentration of the compound at the corresponding blood concentration in the plasma, and CPL is the concentration from the plasma sample separated from the incubated blood.

in vitro = in vitro ADME; settings: microsomes
Procedure: as §1

[5] = Unbound fraction in hepatocyte incubation, rat; assay type: in vitro ADME; settings: hepatocytes (hepatocyte incubation mixture), rats hepatocyte incubation, read-out: fu,hep
Procedure: as §1

[6] = parameters: method as in PMID 31440032; settings: cited from earlier work; for Observed AUCinf / Observed Cmax: humans, fasting
[7] = tested on: methicilin-resistant Staphylococus aureus; settings: infected mice, twice-a-day dosing; cited from earlier work

## CC(C)(C)[C@H](NC(=O)[C@H](CC1CCCC1)CN(O)C=O)C(=O)N1CCC(NCc2cc(F)c(F)cc2F)CC1 [IDP-73152]
[1]; read-out: recovery, A to B transport
  recovery at 2 h, 10 µM: 96.6 ± 5.1%
[1]; read-out: recovery, B to A transport
  recovery at 2 h, 10 µM: 93.4 ± 3%
[1]; Caco-2, Papp,B-to-A / Papp,A-to-B
  efflux ratio at 2 h, 10 µM: < 2
[1]; Caco-2 monolayer, 10 µM, apical-to-basolateral
  Papp A→B at 2 h, 10 µM: 31.2 ± 1.93 ×10⁻⁶ cm/s
[1]; Caco-2 monolayer, 10 µM, basolateral-to-apical
  Papp B→A at 2 h, 10 µM: 49.5 ± 3.5 ×10⁻⁶ cm/s
[2]
  fraction unbound at 5 h: 0.0582 ± 0.005
[3]
  fraction unbound at 5 h: 0.0744 ± 0.0019
[4]
  blood plasma ratio at 60 min: 1.24 ± 0.08
In vitro; dog
  fraction unbound at 5 h: 0.507 ± 0.04
In vitro; human
  fraction unbound at 5 h: 0.579 ± 0.006
In vitro; mouse
  fraction unbound at 5 h: 0.571 ± 0.023
In vitro; rat
  fraction unbound at 5 h: 0.439 ± 0.043
[5]
  fraction unbound at 5 h: 0.492 ± 0.068
[6]; human subjects, single oral dose of 40–1280 mg
  adverse effects: without clinically significant adverse effects
[6]; single oral 640 mg
  Observed AUCinf: 43400 ± 4470 ng·h/mL
  Observed Cmax: 8920 ± 1170 ng/mL
[6]; single oral 1280 mg
  Observed AUCinf: 77400 ± 15400 ng·h/mL
  Observed Cmax: 13200 ± 2500 ng/mL
[7]
  ED50 (oral dose at which the survival rate was 50%): 16.6 mg/kg
